One assay has as its system MOLM-13 cells. As to the kind of experiment: Cell-cycle analysis (flow cytometry). It is filed as cell-based, human. The following applies: dose-dependent. As for the experimental part: Cell-cycle analysis: Cells were treated with vehicle, DMSO or Compound 7 and were stained with PI and EdU, and then analyzed by flow cytometry to determine the phases of cell cycle.
For orientation: Flow cytometry measures light scatter and fluorescence of single cells or particles in a stream.

Assay [1] concerns MV4-11 (FLT3-ITD, t(4:11)). As to the kind of experiment: Antiproliferative activity (Table 6). It is filed as cell-based. The following applies: Homo sapiens, MV4-11, 72 h.
The test system of assay [2] is Ba/F3-ITD + D835Y (FLT3-ITD + D835Y). In words: Antiproliferative activity (Table 6). It is filed as cell-based, Murin. The settings on record: 72 h.
Assay [3] relates to Ba/F3-ITD + 842 (ITD + Y842C). In words: Antiproliferative activity (Table 6). It is filed as cell-based, Murin. The settings on record: 72 h.
For another assay, the target named is FLT3(ITD) (Homo sapiens, UniProt P36888). As to the kind of experiment: Inhibition of FLT3 mutants, kinase IC50. More on the design: IC50; other: FLT3(ITD). It is filed as biochemical. As for the experimental part: (§1) RBC HotSpot Kinase Assay Protocol:
(§2) Reagents used: Base Reaction buffer; 20 mM Hepes (pH 7.5), 10 mM MgCl2, 1 mM EGTA, 0.02% Brij35, 0.02 mg/ml BSA, 0.1 mM Na3VO4, 2 mM DTT, 1% DMSO. Required cofactors are added individually to each kinase reaction.
(§3) Compound 7 was dissolved in 100% DMSO to a specified concentration. The serial dilution was conducted by epMotion 5070 in DMSO. The substrate was freshly prepared in Reaction Buffer and any required cofactors to the substrate solution were added. The kinase was added to the solution and gently mixed. Compound 7 was added in 100% DMSO into the kinase reaction mixture by Acoustic technology (Echo550; nanoliter range), and incubated for 20 min at room temperature. ^33P-ATP (Specific activity 10 μCi/μl) was added into the reaction mixture to initiate the reaction, which was incubated for 2 hours, whereupon kinase activity was detected by the filter-binding method.

The target of another assay is T1, FLT3(D835V) (Homo sapiens, UniProt P36888, D835V).
T1 construct: made in house; host or cells: E. coli BL21-derived host (T7 phage) or HEK-293
As to the kind of experiment: Binding constant (Kd), competition binding with qPCR readout. The protocol: (§4) Measurements of said kinase activity are referred to as binding constants or Kd values. The protocol for obtaining these values is hereby described. For most assays, kinase-tagged T7 phage strains were prepared in an E. coli host derived from the BL21 strain. E. coli were grown to log-phase and infected with T7 phage and incubated with shaking at 32° C. until lysis. The lysates were centrifuged and filtered to remove cell debris. The remaining kinases were produced in HEK-293 cells and subsequently tagged with DNA for qPCR detection. […] The liganded beads were blocked with excess biotin and washed with blocking buffer (SeaBlock (Pierce), 1% BSA, 0.05% Tween 20, 1 mM DTT) to remove unbound ligand and to reduce nonspecific binding. […] Test compounds were prepared as 111× stocks in 100% DMSO. Kds were determined using an 11-point 3-fold compound dilution series with three DMSO control points. […] The compounds were then diluted directly into the assays such that the final concentration of DMSO was 0.9%. All reactions performed in polypropylene 384-well plate. Each was a final volume of 0.02 ml. […] The kinase concentration in the eluates was measured by qPCR.
In general terms: Real-time PCR tracks product formation cycle by cycle.

The next assay deals with T2, FLT3(ITD-F691L) (Homo sapiens, UniProt P36888, F691L, form not given).
T2 construct: kinase-tagged T7 phage strains were prepared in an E. coli host derived from the BL21 strain; fused on or other part: T7 phage fusion or DNA tag for qPCR detection
The description is as above. The protocol: as §4

For a further assay, the target named is T3, FLT3(R834Q) (Homo sapiens, UniProt P36888, R834Q).
T3 construct: made in house; host or cells: E. coli BL21-derived host (T7 phage) or HEK-293
The description is as above. As for the experimental part: as §4

The target of the next assay is T4, FLT3(ITD-D835V) (Homo sapiens, UniProt P36888, D835V, form not given).
T4 construct: kinase-tagged T7 phage strains were prepared in an E. coli host derived from the BL21 strain; fused on or other part: T7 phage fusion or DNA tag for qPCR detection
The description is as above. As for the experimental part:
as §4

For the next assay, the target named is BTK C481S (Homo sapiens, UniProt Q06187, C481S). As to the kind of experiment: Inhibition of BTK, kinase IC50. Further details: RBC (only as the name of the general kinase protocol). It is filed as biochemical. The protocol: as §1, §2, §3
BTK C481S, sequence (Q06187 whole entry C481S): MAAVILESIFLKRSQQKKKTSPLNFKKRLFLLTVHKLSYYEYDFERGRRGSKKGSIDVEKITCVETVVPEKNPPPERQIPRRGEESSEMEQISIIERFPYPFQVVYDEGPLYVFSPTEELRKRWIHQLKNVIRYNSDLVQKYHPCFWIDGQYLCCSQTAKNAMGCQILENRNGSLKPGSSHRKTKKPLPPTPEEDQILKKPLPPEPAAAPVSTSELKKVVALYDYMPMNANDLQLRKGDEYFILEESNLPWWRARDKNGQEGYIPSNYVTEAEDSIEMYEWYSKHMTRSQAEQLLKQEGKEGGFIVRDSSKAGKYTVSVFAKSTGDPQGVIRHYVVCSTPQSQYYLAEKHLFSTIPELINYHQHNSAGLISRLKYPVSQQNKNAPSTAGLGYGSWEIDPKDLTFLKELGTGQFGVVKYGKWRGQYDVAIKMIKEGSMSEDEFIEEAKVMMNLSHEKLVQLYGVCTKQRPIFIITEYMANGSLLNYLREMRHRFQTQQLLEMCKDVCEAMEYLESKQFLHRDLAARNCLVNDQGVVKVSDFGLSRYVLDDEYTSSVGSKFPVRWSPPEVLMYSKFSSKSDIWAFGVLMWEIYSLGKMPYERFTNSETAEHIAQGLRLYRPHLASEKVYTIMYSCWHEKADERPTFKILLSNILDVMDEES
Another assay has as its system NOM0-1. In words: Cytotoxicity, MTS cell viability. It is filed as cell-based. The following applies: AML, 72 hour MTS. As for the experimental part: (§5) Cytotoxicity procedure: Cells were seeded in 96-well plate and treated with vehicle DMSO or Compound 7 at a specified concentration and incubated for 72 hours.
The subject of a further assay is Jurkat. In words: Cytotoxicity, MTS cell viability. The following applies: Homo sapiens, ALL, 72 hour MTS. It is filed as cell-based. The protocol:
as §5

Another assay has as its system SKM-1. In words: Cytotoxicity, MTS cell viability. It is filed as cell-based. The following applies: Homo sapiens, AML, 72 hour MTS. The protocol:
as §5

For another assay, the system named is EOL-1. As to the kind of experiment: Cytotoxicity, MTS cell viability. It is filed as cell-based. The settings on record: Homo sapiens, EOL1, AML, 72 hour MTS. As for the experimental part:
as §5

The subject of a further assay is HL60. In words: Cytotoxicity, MTS cell viability. It is filed as cell-based. The following applies: Homo sapiens, HL-60, AML, 72 hour MTS. The protocol:
as §5

For a further assay, the system named is MUTZ-8. As to the kind of experiment: Cytotoxicity, MTS cell viability. It is filed as cell-based. The following applies: AML, 72 hour MTS. The protocol: as §5
The next assay has as its system HEL92.1.7. As to the kind of experiment: Cytotoxicity, MTS cell viability. It is filed as cell-based. The settings on record: Homo sapiens, HEL 92.1.7, AML, 72 hour MTS. As for the experimental part:
as §5

Another assay concerns MV4-11. As to the kind of experiment: Cytotoxicity, MTS cell viability. The following applies: Homo sapiens, AML, 72 hour MTS. It is filed as cell-based. As for the experimental part:
as §5

The target of another assay is T5, C481S BTK (Homo sapiens, UniProt Q06187, C481S).
T5 construct: expressed in transfected cells; host or cells: HEK293T
T5 sequence (Q06187 whole entry C481S): as above
As to the kind of experiment: BTK phosphorylation in transfected HEK293T cells (Western blot). The following applies: HEK293T transfected with C481S BTK; 0.5 and 1.0 μM, six hours. It is filed as cell-based. The protocol:
(§6) HEK293T cells were transiently transfected with wild-type BTK or C481S BTK. The transfected cells were treated with or without Compound 7 (0.5 and 1.0 μM) for six hours. This was performed in triplicate and the results were analyzed by Western Blot analysis.

The next assay addresses T6, wild-type BTK (Homo sapiens, UniProt Q06187).
T6 construct: expressed in transfected cells; host or cells: HEK293T
Described as above. It is filed as cell-based. The settings on record: HEK293T transfected with wild-type BTK; 0.5 and 1.0 μM, six hours. The protocol:
as §6

Assay [4] concerns Ba/F3-ITD + D835H (FLT3-ITD + D835H). In words: Antiproliferative activity (Table 6). It is filed as cell-based, Murin. The settings on record: 72 h.
Another assay concerns the target T7, FLT3(K663Q) (Homo sapiens, UniProt P36888, K663Q).
T7 construct: made in house; host or cells: E. coli BL21-derived host (T7 phage) or HEK-293
In words: Binding constant (Kd), competition binding with qPCR readout.

T6 sequence (Q06187 whole entry): as the sequence (Q06187 whole entry C481S) above, with S481C counted along it

`Cc1cnc(-c2ccc(-c3ccc(NC(=O)Nc4c(F)cc(F)cc4F)cc3F)c3c2C(=O)NC3)[nH]1` [Compound 7, 1-{3-fluoro-4-[7-(5-methyl-1H-imidazol-2-yl)-1-oxo-2,3-dihydro-1H-isoindol-4-yl]-phenyl}-3-(2,4,6-trifluorophenyl)urea]: in the assay with MOLM-13 cells, the G0/G1 cell-cycle arrest entry is on record as “induce G0/G1 cell-cycle arrest”. Also, the half-maximal inhibitory concentration (IC50) (commonly the concentration at which inhibition is half-maximal) in assay [1] stood at 0.17 nM; in assay [2], 9.72 nM; in [3], 0.73 nM; against FLT3(ITD), 0.817 nM; against BTK C481S, 2.52 nM; in the assay on NOM0-1 it was 20.5 nM. In addition, the IC50 in the assay on Jurkat was 1590 nM; in the assay on SKM-1, 816 nM; in the assay with EOL-1, 0.045 nM; in the assay with HL60, 280 nM; in the assay with MUTZ-8 it was 794 nM; in the assay on HEL92.1.7 it was 4690 nM. In addition, the figures for the IC50 (in the assay with MV4-11; in [4]) were 0.238 nM and 6.74 nM, respectively. Further, the Kd (as a rule, the equilibrium constant for the complex coming apart) on FLT3(D835V) is 7.9 nM; on FLT3(ITD-F691L) it was 15 nM; on FLT3(R834Q), 6.4 nM; at FLT3(ITD-D835V), 1700 nM; on FLT3(K663Q), 0.55 nM. Moreover, the “Inhibition of BTK (reduction in phosphorylated forms)” value was “inhibits both wild-type and the C481S mutant form of BTK” on C481S BTK; “inhibits both wild-type and the C481S mutant form of BTK” on wild-type BTK.

The values are drawn from US20180344702A1, “METHODS FOR TREATING PATIENTS WITH HEMATOLOGIC MALIGNANCIES” (Aptose Biosciences, Inc., priority 2017, published 2018).
